Experimental data as given in ChEMBL document CHEMBL1201862, “PubChem BioAssay data set” (2004).
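Values below derive from 48-hour exposures of cells grown in 96-well plates, with endpoints linearly interpolated between the two concentrations bracketing the appropriate inhibition level. The concentration for 50% growth inhibition is given as GI50.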 Activity calls are given as the source filed them. Rule as the data show it: active = GI50 up to about 1.1 µM and inactive = higher.

Legend:
Experiment in all cases: NCI-60 cell line screen, 48 h
SF-295 = tested on: SF-295
OVCAR-8 = tested on: OVCAR-8
COLO 205 = tested on: COLO 205
M14 = tested on: M14
HCT-15 = tested on: HCT-15
RXF 393 = tested on: RXF 393
RPMI-8226 = tested on: RPMI-8226
SF-268 = tested on: SF-268
SNB-78 = tested on: SNB-78
SN12C = tested on: SN12C
NCI-H522 = tested on: NCI-H522
OVCAR-3 = tested on: OVCAR-3
A549 = tested on: A549
SF-539 = tested on: SF-539
KM-20L2 = tested on: KM-20L2
786-0 = tested on: 786-0
SK-MEL-28 = tested on: SK-MEL-28
UO-31 = tested on: UO-31
OVCAR-4 = tested on: OVCAR-4
SK-MEL-2 = tested on: SK-MEL-2
SNB-19 = tested on: SNB-19
SNB-75 = tested on: SNB-75
EKVX = tested on: EKVX
HCT-116 = tested on: HCT-116
NCI-H23 = tested on: NCI-H23
HL-60 = tested on: HL-60
UACC-62 = tested on: UACC-62
NCI-H460 = tested on: NCI-H460
HCC 2998 = tested on: HCC 2998
IGROV-1 = tested on: IGROV-1
UACC-257 = tested on: UACC-257
HOP-92 = tested on: HOP-92
A498 = tested on: A498
MOLT-4 = tested on: MOLT-4
HT-29 = tested on: HT-29
SK-MEL-5 = tested on: SK-MEL-5
HOP-18 = tested on: HOP-18
M19-MEL = tested on: M19-MEL
LOX IMVI = tested on: LOX IMVI
DMS-273 = tested on: DMS-273
SW-620 = tested on: SW-620
ACHN = tested on: ACHN
DMS-114 = tested on: DMS-114
CCRF-CEM = tested on: CCRF-CEM
K562 = tested on: K562
U-251 = tested on: U-251
SK-OV-3 = tested on: SK-OV-3
HOP-62 = tested on: HOP-62
XF498 = tested on: XF498
NCI-H226 = tested on: NCI-H226
RXF 631 = tested on: RXF 631
KM12 = tested on: KM12
TK-10 = tested on: TK-10
DLD-1 = tested on: DLD-1
SR = tested on: SR
LXFL 529 = tested on: LXFL 529
OVCAR-5 = tested on: OVCAR-5
CAKI-1 = tested on: CAKI-1
Malme-3M = tested on: Malme-3M

Measured: GI50

COc1cc([C@@H]2OC(=O)C3C2C(=O)O[C@H]3c2cc(OC)c(OC)c(OC)c2)cc(OC)c1OC (stereo partly specified)
> 100 µM: HCT-15
inactive: SF-295 > 100 µM | OVCAR-8 > 100 µM | COLO 205 > 100 µM | M14 > 100 µM | RXF 393 > 100 µM | RPMI-8226 > 100 µM | SF-268 > 100 µM | SNB-78 > 100 µM | SN12C > 100 µM | NCI-H522 > 100 µM | OVCAR-3 > 100 µM | A549 > 100 µM | SF-539 > 100 µM | KM-20L2 > 100 µM | 786-0 > 100 µM | SK-MEL-28 > 100 µM | UO-31 > 100 µM | OVCAR-4 > 100 µM | SK-MEL-2 > 100 µM | SNB-19 > 100 µM | SNB-75 > 100 µM | EKVX > 100 µM | HCT-116 > 100 µM | NCI-H23 > 100 µM | HL-60 > 100 µM | UACC-62 > 100 µM | NCI-H460 > 100 µM | HCC 2998 > 100 µM | IGROV-1 > 100 µM | UACC-257 > 100 µM | HOP-92 > 100 µM | A498 > 100 µM | MOLT-4 > 100 µM | HT-29 > 100 µM | SK-MEL-5 > 100 µM | HOP-18 > 100 µM | M19-MEL > 100 µM | LOX IMVI > 100 µM | DMS-273 > 100 µM | SW-620 > 100 µM | ACHN > 100 µM | DMS-114 > 100 µM | CCRF-CEM > 100 µM | K562 > 100 µM | U-251 > 100 µM | SK-OV-3 > 100 µM | HOP-62 > 100 µM | XF498 6.08 µM | NCI-H226 38.8 µM | RXF 631 > 100 µM | KM12 > 100 µM | TK-10 > 100 µM

COc1ccc2cc1Oc1ccc(cc1)CC1c3cc(c(OC)cc3CCN1C)Oc1c3c(cc4c1C(C2)N(C)CC4)OCO3 (stereo unspecified)
4.42 µM: HCT-15
inactive: DLD-1 17 µM | SF-295 10.3 µM | OVCAR-8 8.36 µM | COLO 205 3.89 µM | M14 1.87 µM | RXF 393 1.83 µM | SR 7.85 µM | SF-268 8.36 µM | SNB-78 13.9 µM | SN12C 11.4 µM | NCI-H522 7.16 µM | OVCAR-3 15.7 µM | A549 16 µM | SF-539 2.34 µM | KM-20L2 2.08 µM | 786-0 11.5 µM | SK-MEL-28 3.29 µM | OVCAR-4 4.58 µM | SK-MEL-2 5.2 µM | SNB-19 17.6 µM | SNB-75 3.74 µM | EKVX 14.9 µM | HCT-116 12.8 µM | NCI-H23 17 µM | HL-60 1.92 µM | UACC-62 16.2 µM | NCI-H460 14.2 µM | HCC 2998 11.5 µM | IGROV-1 15.1 µM | LXFL 529 13 µM | MOLT-4 5.52 µM | HT-29 2.46 µM | SK-MEL-5 12.3 µM | M19-MEL 3.85 µM | LOX IMVI 1.85 µM | DMS-273 3.44 µM | SW-620 13.1 µM | ACHN 4.58 µM | DMS-114 5.74 µM | CCRF-CEM 13.2 µM | K562 1.85 µM | OVCAR-5 18.2 µM | U-251 5.14 µM | HOP-62 15.5 µM | XF498 9.55 µM | NCI-H226 2.35 µM | RXF 631 13.7 µM | KM12 12.9 µM | TK-10 2.19 µM

CCOC(=O)Cc1cc(OC)c(OC)cc1/C(Cl)=C(\C=O)c1ccc(OC)c(OC)c1
active: HOP-92 1 µM
17.5 µM: HCT-15
inactive: DLD-1 16.3 µM | SF-295 15.2 µM | OVCAR-8 25.5 µM | COLO 205 21.8 µM | M14 16.1 µM | RXF 393 57.8 µM | RPMI-8226 9.75 µM | SNB-78 22.3 µM | SN12C 15.2 µM | OVCAR-3 13.8 µM | A549 16.9 µM | CAKI-1 29.4 µM | KM-20L2 15.3 µM | Malme-3M 27.4 µM | SK-MEL-28 24.2 µM | UO-31 26.1 µM | OVCAR-4 18.5 µM | SK-MEL-2 19.7 µM | SNB-19 34.4 µM | SNB-75 32.1 µM | EKVX 22.1 µM | HCT-116 14.4 µM | NCI-H23 19.6 µM | HL-60 17.3 µM | UACC-62 16.4 µM | NCI-H460 3.4 µM | IGROV-1 28.6 µM | UACC-257 18.9 µM | MOLT-4 16.9 µM | HT-29 15.8 µM | SK-MEL-5 17.1 µM | HOP-18 28.7 µM | M19-MEL 22.6 µM | LOX IMVI 17.9 µM | DMS-273 19.5 µM | SW-620 22.9 µM | ACHN 20.6 µM | DMS-114 18.2 µM | CCRF-CEM > 10 µM | K562 17.2 µM | U-251 17.5 µM | SK-OV-3 37.1 µM | HOP-62 9.35 µM | XF498 20 µM | RXF 631 20.3 µM | TK-10 26 µM
